Test results from PubChem BioAssay AID330 (DTP/NCI, 2004).
Several values for one entry are separate records, joined by “and”; a condition that tells them apart may be missing. Identical values can stand only once. Toxic doses and inconclusive results are not listed.

Test system: P388 leukemia ip, CD2F1 mice, survival T/C
Assay: NCI In Vivo Anticancer Drug Screen. Data for tumor model P388 Leukemia (intraperitoneal) in CD2F1 (CDF1) mice
Details: endpoint: median survival time, higher = longer survival
Outline: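 Mice carrying the transplanted tumor received test compound or vehicle. Survival was recorded in each group, and the value is the treated-group measurement divided by that of the vehicle-treated control group.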

[1] = dose: 60.0 mg/kg/injection, schedule: Q01DX005 (ip), vehicle: saline with Tween-80
[2] = dose: 50.0 mg/kg/injection, schedule: Q01DX005 (ip), vehicle: saline with Tween-80
[3] = dose: 100.0 mg/kg/injection, schedule: Q01DX005 (ip), vehicle: saline with Tween-80
[4] = dose: 200.0 mg/kg/injection, schedule: Q01DX005 (ip), vehicle: saline with Tween-80
[5] = dose: 25.0 mg/kg/injection, schedule: Q01DX009 (ip), vehicle: other
[6] = dose: 25.0 mg/kg/injection, schedule: Q01DX009 (ip), vehicle: saline with Tween-80
[7] = dose: 12.5 mg/kg/injection, schedule: Q01DX009 (ip), vehicle: saline
[8] = dose: 25.0 mg/kg/injection, schedule: Q01DX009 (ip), vehicle: saline
[9] = dose: 50.0 mg/kg/injection, schedule: Q01DX009 (ip), vehicle: saline with Tween-80
[10] = dose: 100.0 mg/kg/injection, schedule: Q01DX009 (ip), vehicle: saline with Tween-80
[11] = dose: 200.0 mg/kg/injection, schedule: Q01DX009 (ip), vehicle: saline with Tween-80
[12] = dose: 50.0 mg/kg/injection, schedule: Q01DX005 (ip), vehicle: Klucel (hydroxypropylcellulose) (HPC)
[13] = dose: 50.0 mg/kg/injection, schedule: Q01DX009 (ip), vehicle: saline
[14] = dose: 100.0 mg/kg/injection, schedule: Q01DX009 (ip), vehicle: saline
[15] = dose: 200.0 mg/kg/injection, schedule: Q01DX009 (ip), vehicle: saline
[16] = dose: 100.0 mg/kg/injection, schedule: Q04DX003 (ip), vehicle: saline with Tween-80
[17] = dose: 200.0 mg/kg/injection, schedule: Q04DX003 (ip), vehicle: saline with Tween-80
[18] = dose: 400.0 mg/kg/injection, schedule: Q04DX003 (ip), vehicle: saline with Tween-80

SMILES: CN1C(=O)C(O)(c2c3c(c(C4(O)C(=O)N(C)c5ccccc54)c4c2OCO4)OCO3)c2ccccc21 (stereo unspecified)
- T/C [1]: 89 % of control
- T/C (dose: 120.0 mg/kg/injection, schedule: Q01DX005 (ip), vehicle: saline with Tween-80): 91 % of control
- T/C (dose: 240.0 mg/kg/injection, schedule: Q01DX005 (ip), vehicle: saline with Tween-80): 91 % of control

SMILES: Cc1ccc2oc(C(=O)Nc3nnc(-c4ccccc4)s3)cc(=O)c2c1
- T/C [2]: 96 % of control
- T/C [3]: 94 % of control
- T/C [4]: 94 % of control

SMILES: CC(=O)O[C@@H]1[C@@H](O)C2=C3[C@]4(C)[C@@H]1C(C)(C)C(=O)C[C@@H]4[C@]3(O)[C@H](OC(C)=O)[C@@]1(C[C@@H]1C)C2=O
- T/C [5]: 118 % of control
- T/C [6]: 115 % of control

SMILES: COc1cc(-c2ccc(N=Nc3ccc4c(S(=O)(=O)O)cc(S(=O)(=O)O)c(N)c4c3O)c(OC)c2)ccc1N=Nc1ccc2c(S(=O)(=O)O)cc(S(=O)(=O)O)c(N)c2c1O
- T/C [7]: 94 % of control
- T/C [8]: 92 % of control

SMILES: CCCCCCC(=O)CC(SCC)c1ccccc1 (stereo unspecified)
- T/C [9]: 106 % of control
- T/C [10]: 113 % of control
- T/C [11]: 114 % of control

SMILES: C[n+]1ccc(Nc2ccc(NC(=O)c3ccc(Nc4cc[n+](C)c5ccc(N)cc45)cc3)cc2)cc1
- T/C (dose: 1.0 mg/kg/injection, schedule: Q04DX003 (ip), vehicle: Klucel (hydroxypropylcellulose) (HPC)): 116 % of control
- T/C (dose: 2.0 mg/kg/injection, schedule: Q01DX005 (ip), vehicle: suspension in saline): 187 % of control
- T/C (dose: 2.0 mg/kg/injection, schedule: Q04DX003 (ip), vehicle: Klucel (hydroxypropylcellulose) (HPC)): 166 % of control
- T/C (dose: 2.88 mg/kg/injection, schedule: Q04DX003 (ip), vehicle: water): 158 % of control
- T/C (dose: 4.0 mg/kg/injection, schedule: Q01DX005 (ip), vehicle: suspension in saline): 239 % of control
- T/C (dose: 4.0 mg/kg/injection, schedule: Q04DX003 (ip), vehicle: Klucel (hydroxypropylcellulose) (HPC)): 168 % of control
- T/C (dose: 4.8 mg/kg/injection, schedule: Q04DX003 (ip), vehicle: water): 167 % of control
- T/C (dose: 8.0 mg/kg/injection, schedule: Q01DX005 (ip), vehicle: suspension in saline): 283 % of control
- T/C (dose: 8.0 mg/kg/injection, schedule: Q04DX003 (ip), vehicle: Klucel (hydroxypropylcellulose) (HPC)): 237 % of control
- T/C (dose: 8.0 mg/kg/injection, schedule: Q04DX003 (ip), vehicle: water): 200 % of control
- T/C (dose: 9.0 mg/kg/injection, schedule: Q04DX003 (ip), vehicle: water): 170 % of control
- T/C (dose: 13.3 mg/kg/injection, schedule: Q04DX003 (ip), vehicle: water): 238 % of control
- T/C (dose: 16.0 mg/kg/injection, schedule: Q04DX003 (ip), vehicle: Klucel (hydroxypropylcellulose) (HPC)): 270 % of control
- T/C (dose: 32.0 mg/kg/injection, schedule: Q04DX003 (ip), vehicle: Klucel (hydroxypropylcellulose) (HPC)): 294 % of control

SMILES: O=C1c2ccccc2C(=O)N1/N=[N+](\[O-])N1CCOCC1
- T/C (dose: 25.0 mg/kg/injection, schedule: Q01DX005 (ip), vehicle: Klucel (hydroxypropylcellulose) (HPC)): 90 % of control
- T/C [12]: 99 % of control
- T/C (dose: 100.0 mg/kg/injection, schedule: Q01DX005 (ip), vehicle: Klucel (hydroxypropylcellulose) (HPC)): 90 % of control
- T/C (dose: 200.0 mg/kg/injection, schedule: Q01DX005 (ip), vehicle: Klucel (hydroxypropylcellulose) (HPC)): 101 % of control

SMILES: C=CC1CCCCC1=O (stereo unspecified)
- T/C [2]: 110 % of control
- T/C [3]: 111 % of control
- T/C [4]: 111 % of control

SMILES: O=C(COP(=O)(OCC(=O)Oc1ccc([N+](=O)[O-])cc1)Oc1ccc([N+](=O)[O-])cc1)Oc1ccc([N+](=O)[O-])cc1
- T/C [5]: 102 % of control
- T/C (dose: 50.0 mg/kg/injection, schedule: Q01DX009 (ip), vehicle: other): 98 % of control
- T/C (dose: 100.0 mg/kg/injection, schedule: Q01DX009 (ip), vehicle: other): 93 % of control
- T/C (dose: 200.0 mg/kg/injection, schedule: Q01DX009 (ip), vehicle: other): 91 % of control
- T/C (dose: 400.0 mg/kg/injection, schedule: Q01DX009 (ip), vehicle: other): 108 % of control

SMILES: Cc1nc2ccccc2c(=O)n1C(C)C
- T/C [13]: 99 % of control
- T/C [14]: 100 % of control
- T/C [15]: 104 % of control

SMILES: c1nc(SC2CCCC2)c2[nH]cnc2n1
- T/C [16]: 118 % of control
- T/C [17]: 104 % of control
- T/C [18]: 118 % of control

SMILES: C[CH2][Ge]([CH2]C)[CH2]/C=C\[CH2][Ge]([CH2]C)[CH2]C
- T/C [9]: 94 % of control
- T/C [10]: 117 % of control

SMILES: COc1ccc(S(=O)(=O)N/N=C\c2cc(I)cc(I)c2O)cc1
- T/C [2]: 101 % of control
- T/C [3]: 102 % of control
- T/C [4]: 100 % of control

SMILES: OCCN=Cc1ccccc1O.OCCN=Cc1ccccc1O.[Cu]
- T/C [12]: 110 % of control

SMILES: OC1CCOC1 (stereo unspecified)
- T/C (dose: 6.25 mg/kg/injection, schedule: Q01DX009 (ip), vehicle: saline): 95 % of control
- T/C [7]: 97 % of control
- T/C [8]: 100 % of control
- T/C [13]: 101 % of control
- T/C [14]: 101 % of control
- T/C [15]: 98 % of control
- T/C (dose: 400.0 mg/kg/injection, schedule: Q01DX009 (ip), vehicle: saline): 94 % of control
- T/C (dose: 800.0 mg/kg/injection, schedule: Q01DX009 (ip), vehicle: saline): 96 % of control

SMILES: C#Cc1cccc(N=Cc2cc(Br)cc(OC)c2O)c1
- T/C [2]: 90 % of control
- T/C [3]: 92 % of control
- T/C [4]: 111 % of control

SMILES: Fc1ccc2nc3ccccc3c(SCCCCCCSc3c4ccccc4nc4ccc(F)cc34)c2c1
- T/C (dose: 60.0 mg/kg/injection, schedule: Q01DX005 (ip), vehicle: Klucel (hydroxypropylcellulose) (HPC)): 96 % of control
- T/C (dose: 120.0 mg/kg/injection, schedule: Q01DX005 (ip), vehicle: Klucel (hydroxypropylcellulose) (HPC)): 90 % of control

SMILES: CC(=O)Nc1ccc(/C=N/NC(=O)CNC(=O)Nc2cccc(Cl)c2Cl)cc1
- T/C [6]: 99 % of control
- T/C [9]: 97 % of control
- T/C [10]: 89 % of control
- T/C [11]: 93 % of control

SMILES: COCCOC(=O)NCP(Cl)(CNC(=O)OCCOC)(CNC(=O)OCCOC)CNC(=O)OCCOC
- T/C [13]: 100 % of control
- T/C [14]: 99 % of control
- T/C [15]: 105 % of control

SMILES: CC(CN(C)C)C(=O)/C=C/c1c(Cl)cccc1Cl (stereo unspecified)
- T/C [1]: 111 % of control

SMILES: Cn1nc(-c2ccccc2)c(-c2ccccc2)c(C#N)c1=O
- T/C (dose: 25.0 mg/kg/injection, schedule: Q04DX002 (ip), vehicle: distilled water + Tween-80): 109 % of control
- T/C (dose: 50.0 mg/kg/injection, schedule: Q04DX002 (ip), vehicle: distilled water + Tween-80): 102 % of control
- T/C (dose: 100.0 mg/kg/injection, schedule: Q04DX002 (ip), vehicle: distilled water + Tween-80): 101 % of control
- T/C (dose: 200.0 mg/kg/injection, schedule: Q04DX002 (ip), vehicle: distilled water + Tween-80): 100 % of control

SMILES: O=[N+]([O-])c1ccc(Sc2ccc([N+](=O)[O-])cc2)cc1
- T/C (dose: 50.0 mg/kg/injection, schedule: Q04DX003 (ip), vehicle: saline with Tween-80): 90 % of control
- T/C (dose: 66.0 mg/kg/injection, schedule: Q04DX003 (ip), vehicle: saline with Tween-80): 90 % of control
- T/C [16]: 100 % of control and 95 % of control
- T/C (dose: 150.0 mg/kg/injection, schedule: Q04DX003 (ip), vehicle: saline with Tween-80): 90 % of control
- T/C [17]: 90 % of control

SMILES: O=C1c2ccccc2CC1(Br)C(Br)c1ccccc1 (stereo unspecified)
- T/C [10]: 109 % of control
- T/C [16]: 96 % of control
- T/C [11]: 118 % of control
- T/C [17]: 92 % of control
- T/C (dose: 400.0 mg/kg/injection, schedule: Q01DX009 (ip), vehicle: saline with Tween-80): 109 % of control
- T/C [18]: 92 % of control

SMILES: COC(=O)c1c(-c2ccccc2)c(-c2ccccc2)nn(-c2ccccc2)c1=O
- T/C (dose: 50.0 mg/kg/injection, schedule: Q01DX001 (ip), vehicle: saline with Tween-80): 100 % of control and 102 % of control
- T/C (dose: 100.0 mg/kg/injection, schedule: Q01DX001 (ip), vehicle: saline with Tween-80): 99 % of control and 100 % of control
- T/C (dose: 200.0 mg/kg/injection, schedule: Q01DX001 (ip), vehicle: saline with Tween-80): 92 % of control and 97 % of control
- T/C (dose: 400.0 mg/kg/injection, schedule: Q01DX001 (ip), vehicle: saline with Tween-80): 87 % of control and 90 % of control
